Data reported in publication PMC12142043, “Cell-based high-content approach for SARS-CoV-2 neutralization identifies unique monoclonal antibodies and PI3K pathway inhibitors” (Frontiers in Cell and Developmental Biology, 2025).
Counter-ions that a name gives are not always drawn.

Test system: SARS-CoV-2 (USA-WA1/2020) in Calu-3 cells
Format: cell-based
Details: Calu-3, 48 h; for dsRNA signal, AU High: high dose (10 µM); for dsRNA signal, AU Low: low dose (100 nM)

SMILES	dsRNA signal, AU High	dsRNA signal, AU Low
CC[C@@H](N)CNc1ccnc(-c2cc(-c3cnn(C)c3)ccc2O)n1.Cl.Cl [CRT 0066101]	0.0 AU	45629.7 AU
O=C(O)c1ccc2c(c1)nc(Nc1cccc(Cl)c1)c1ccncc12 [CX-4945 (Silmitasertib)]	35326.5 AU	21811.4 AU
CN1CCCN(C(=O)c2cccc(-c3ccc(/C=C4/C(=O)Nc5ccc(Cl)cc54)o3)c2)CC1 [CX-6258]	0.0 AU	9957.5 AU
COc1cc2nccc(Oc3ccc(NC(=O)C4(C(=O)Nc5ccc(F)cc5)CC4)cc3)c2cc1OC [Cabozantinib (XL184, BMS-907351)]	13075.8 AU	39205.8 AU
COc1cc2nccc(Oc3ccc(NC(=O)C4(C(=O)Nc5ccc(F)cc5)CC4)cc3)c2cc1OC.O=C(O)C[C@H](O)C(=O)O [Cabozantinib malate (XL184)]	148.7 AU	24276.1 AU
COc1cc2c(Oc3ccc4[nH]c(C)cc4c3F)ncnc2cc1OCCCN1CCCC1 [Cediranib (AZD217)]	1359.3 AU	15765.2 AU
CCS(=O)(=O)N1CCN(c2ccc(Nc3ncc(C(N)=O)c(NC4CC4)n3)cc2)CC1 [Cerdulatinib (PRT062070)]	60131.0 AU	21245.1 AU
COc1ccc2c(c[n+](C)c3c4cc5c(cc4ccc23)OCO5)c1OC [Chelerythrine Chloride]	10306.1 AU	22120.5 AU
CCN(CC)CCCC(C)Nc1ccnc2cc(Cl)ccc12 (centres unmarked) [Chloroquine diphosphate]	4180.7 AU	1072.6 AU
O=C(c1ccc(F)c(F)c1Nc1ccc(I)cc1F)N1CC(O)([C@@H]2CCCCN2)C1 [Cobimetinib]	1412.8 AU	21814.8 AU
O=C(O)c1cc(=O)c2c(OCC(O)COc3cccc4oc(C(=O)O)cc(=O)c34)cccc2o1 [Cromolyn sodium]	64024.7 AU	17957.1 AU
CC(C)(O)/C=C/C(=O)[C@](C)(O)[C@H]1[C@H](O)C[C@@]2(C)[C@@H]3CC=C4[C@@H](C=C(O)C(=O)C4(C)C)[C@]3(C)C(=O)C[C@]12C [Cucurbitacin I]	39627.9 AU	39750.1 AU
C=C1C[C@@]2(O)O[C@@]3(C[C@H]2C(C)C)[C@@H](C)CC[C@@H]13 [Curcumol]	0.0 AU	41441.3 AU
C[C@@H]1C(=O)O[C@H](C)[C@H]1C[C@@H](O)[C@](C)(O)[C@H]1CC[C@@]2(O)C3=CC(=O)[C@@H]4C[C@@H](O)[C@@H](O)C[C@]4(C)[C@H]3CC[C@]12C [Cyasterone]	81.6 AU	11248.2 AU
NC(=O)c1ccc(-c2nc(-c3ccc4c(c3)OCCO4)c(-c3ccccn3)[nH]2)cc1 [D4476]	6178.6 AU	10405.5 AU
Nc1cccc(S(=O)(=O)N2CCCN(S(=O)(=O)c3ccc4c(c3)OCCO4)CC2)c1 [DASA-58]	7492.3 AU	8577.3 AU
NC(=O)c1ccccc1Nc1ccnc(Nc2cccc(O)c2)n1 [DB07268]	10652.5 AU	37894.5 AU
O=C(O)C(Cl)Cl [DCA]	2582.6 AU	13605.1 AU
CCn1c(=O)c(-c2cc(NC(=O)Nc3ccccc3)c(F)cc2Br)cc2cnc(NC)cc21 [DCC-2618]	31390.7 AU	17341.0 AU
O=C(NCCN1CCCC1)c1cc(-c2ccc(CN3CCOCC3)cc2)nc2ccc(F)cc12 [DDD107498]	38942.1 AU	5409.3 AU
CC(C)Oc1ccc(-c2cnc3c(-c4ccnc5ccccc45)cnn3c2)cc1 [DMH-1]	13545.0 AU	45359.2 AU
CC(C)(C)c1nc(-c2cccc(NS(=O)(=O)c3c(F)cccc3F)c2F)c(-c2ccnc(N)n2)s1.CS(=O)(=O)O [Dabrafenib Mesylate (GSK-2118436)]	27414.0 AU	0.0 AU
COc1cc2ncnc(Nc3ccc(F)c(Cl)c3)c2cc1NC(=O)/C=C/CN1CCCCC1 [Dacomitinib (PF299804, PF299)]	0.0 AU	7030.9 AU
CNC(=O)c1ccc(Nc2ncc(C(F)(F)F)c(NCc3nccnc3N(C)S(C)(=O)=O)n2)cc1 [Defactinib]	31683.7 AU	56452.3 AU
CCCCOc1cc(C(=O)NCCN(CC)CC)c2ccccc2n1.Cl [Dibucaine (Cinchocaine) HCl]	9319.1 AU	11778.5 AU
CCCC(=O)Nc1ncnc2c1ncn2[C@@H]1O[C@@H]2COP(=O)([O-])O[C@H]2[C@H]1OC(=O)CCC.[Na+] [Dibutyryl-cAMP, sodium salt]	10702.1 AU	55803.3 AU
O=C1c2c(O)cc(O)cc2O[C@H](c2cc(O)c(O)c(O)c2)[C@H]1O [Dihydromyricetin]	20863.8 AU	12380.4 AU
CCc1cnn2c(NCc3ccc[n+]([O-])c3)cc(N3CCCC[C@H]3CCO)nc12 [Dinaciclib (SCH727965)]	10476.7 AU	0.0 AU

SMILES	dsRNA signal, AU High	dsRNA signal, AU Low
C[C@@H]1CC[C@@]2(OC1)O[C@H]1C[C@H]3[C@@H]4CC=C5C[C@@H](O)CC[C@]5(C)[C@H]4CC[C@]3(C)[C@H]1[C@@H]2C [Diosgenin]	0.0 AU	2764.9 AU
Cl.Cl.c1cc(-c2cnn3cc(-c4ccc(OCCN5CCCCC5)cc4)cnc23)ccn1 [Dorsomorphin 2HCl]	1809.4 AU	18817.3 AU
c1cc(-c2cnn3cc(-c4ccc(OCCN5CCCCC5)cc4)cnc23)ccn1 [Dorsomorphin (Compound C)]	6395.6 AU	1963.8 AU
CN1CCN(c2ccc3nc(-c4c(N)c5c(F)cccc5[nH]c4=O)[nH]c3c2)CC1 [Dovitinib (TKI-258, CHIR-258)]	15765.0 AU	183.2 AU
CC(O)C(=O)O.CC(O)C(=O)O.CN1CCN(c2ccc3nc(-c4c(N)c5c(F)cccc5[nH]c4=O)[nH]c3c2)CC1 [Dovitinib Dilactic acid]	47107.5 AU	17331.2 AU
O=C(Nc1nccs1)C(c1cc(F)ccc1O)N1Cc2ccccc2C1=O (centres unmarked) [EAI045]	0.0 AU	14269.6 AU
O=c1cc(CN2CCOCC2)occ1OCCCCCSc1ccnc2cc(C(F)(F)F)ccc12 [EHT 1864]	22471.9 AU	17099.7 AU
CCn1c2ccccc2c2cc(Nc3ccnc(NCCCN4CCOCC4)n3)ccc21 [EHop-016]	0.0 AU	44568.8 AU
CCc1c(C(=O)NNC(=O)C(O)c2cc(F)cc(F)c2)ccc(O)c1C (centres unmarked) [EMD638683]	288.1 AU	20264.2 AU
CN1CCC(COc2cnc(-c3cccc(Cn4nc(-c5cccc(C#N)c5)ccc4=O)c3)nc2)CC1 [EMD-1214063]	14120.6 AU	47689.1 AU
Cc1cccc(-c2[nH]c(CNc3ccccc3F)nc2-c2ccc3ncnn3c2)n1 [EW-7197]	168.7 AU	7205.0 AU
O=c1oc2c(O)c(O)cc3c(=O)oc4c(O)c(O)cc1c4c23 [Ellagic acid]	14274.7 AU	14007.9 AU
Cc1cc(O)c2c(c1)C(=O)c1cc(O)cc(O)c1C2=O [Emodin]	20341.5 AU	11688.8 AU
C#Cc1cccc(Nc2ncnc3cc(OCCOC)c(OCCOC)cc23)c1 [Erlotinib Hydrochloride]	3624.7 AU	52457.7 AU
C#Cc1cccc(Nc2ncnc3cc(OCCOC)c(OCCOC)cc23)c1 [Erlotinib]	7272.0 AU	15317.7 AU
CCOC(=O)c1cc(O)c(O)c(O)c1 [Ethyl gallate]	180.5 AU	60976.1 AU
Cc1ccc(-c2c(C(=O)CF)n(CCCO)c3ncnc(N)c23)cc1 [FMK]	36246.0 AU	14082.6 AU
Nc1[nH]nc2nnc(-c3c(-c4ccccc4)nn4ccccc34)cc12 [FR 180204]	10806.0 AU	12597.7 AU
CCn1c(=O)c(-c2ccc(-c3cncs3)cc2Cl)cc2cnc(Nc3ccc(N4CCN(C)CC4)cc3)nc21 [FRAX597]	1538.8 AU	50796.9 AU
CCCCCCCCc1ccc(CCC(N)(CO)CO)cc1 [Fingolimod (FTY720)]	0.0 AU	13731.4 AU
CN1CC[C@H](c2c(O)cc(O)c3c(=O)cc(-c4ccccc4Cl)oc23)[C@H](O)C1 [Flavopiridol]	411.3 AU	2633.8 AU
O=C(O)c1ccccc1Nc1cccc(C(F)(F)F)c1 [Flufenamic acid]	29762.4 AU	15182.6 AU
O=C(O)/C=C/C(=O)O [Fumalic acid]	4691.7 AU	6874.3 AU
O=C(NOCCO)c1ccc2cncn2c1Nc1ccc(I)cc1F [GDC-0623]	0.0 AU	1908.1 AU
OCCn1cc(-c2ccc3c(c2)CC/C3=N\O)c(-c2ccncc2)n1 [GDC-0879]	7041.8 AU	38492.2 AU
CS(=O)(=O)N1CCN(Cc2cc3nc(-c4cccc5[nH]ncc45)nc(N4CCOCC4)c3s2)CC1.CS(=O)(=O)O.CS(=O)(=O)O [GDC-0941 dimethanesulfonate]	20950.7 AU	35251.8 AU
CS(=O)(=O)N1CCN(Cc2cc3nc(-c4cccc5[nH]ncc45)nc(N4CCOCC4)c3s2)CC1 [GDC-0941]	590.8 AU	57346.3 AU
